# Experimental data: US20200017496A1 (priority 2017, published 2020)
# Where two headings read alike, the source gives them in different places.
# What was measured:
# Assay in all cases: MIC of compounds alone and combined with antibacterials, broth microdilution (CLSI)
# Format in all cases: cell-based
# [1] = system: Citrobacter freundii (CFR) isolates; conditions: for MIC: Citrobacter freundii, read-out: MIC
# Procedure, shortened: (§1)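 Compound MIC, and antibacterial MIC at each fixed compound level, taken by visual inspection as lowest concentration stopping growth. Inoculum: log-phase bacteria, final 5·10^5 CFU/mL, cation-adjusted Mueller-Hinton broth; 16-20 h, 35° C, ambient air.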
# [2] = system: Enterobacter aerogenes (EAE) isolates; conditions: for MIC: Klebsiella aerogenes, read-out: MIC
# Procedure, shortened: as §1
# [3] = system: Klebsiella pneumoniae (KPN) isolates
# Procedure, shortened: as §1
structure (smiles),measurement,setting,value
"C=CC1=C(C(=O)O)N2C(=O)[C@@H](NC(=O)/C(=N\OCC(=O)O)c3csc(N)n3)[C@H]2SC1 [FIX, Cefixime]",MIC,"[1]; strain CFR UFR11 (TEM-1, OXA-1, OXA-48), CLA @ 4 μg/ml+ ATB",32 µg/mL
same,MIC,"[1]; strain CFR UFR83 (TEM-3, AmpC), ATB alone",> 128 µg/mL
same,MIC,"[1]; strain CFR UFR83 (TEM-3, AmpC), CLA @ 4 μg/ml+ ATB",> 128 µg/mL
same,MIC,"[1]; strain CFR UFR146 (TEM-1, KPC-2), ATB alone",64 µg/mL
same,MIC,"[1]; strain CFR UFR146 (TEM-1, KPC-2), CLA @ 4 μg/ml+ ATB",64 µg/mL
same,MIC,"[1]; strain CFR UFR248 (CTX-M-15), ATB alone",> 128 µg/mL
same,MIC,"[1]; strain CFR UFR248 (CTX-M-15), CLA @ 4 μg/ml+ ATB",4 µg/mL
same,MIC,"[1]; strain CFR UFR249 (TEM-1, CTX-M-15), ATB alone",> 128 µg/mL
same,MIC,"[1]; strain CFR UFR249 (TEM-1, CTX-M-15), CLA @ 4 μg/ml+ ATB",2 µg/mL
same,MIC,"[1]; strain CFR UFR250 (TEM-1, SHV-28, CTX-M-15), ATB alone",> 128 µg/mL
same,MIC,"[1]; strain CFR UFR250 (TEM-1, SHV-28, CTX-M-15), CLA @ 4 μg/ml+ ATB",2 µg/mL
same,MIC ATB in combination,"[1]; strain CFR UFR253, antibacterial combined with AF1 @ 4 μg/mL",32 µg/mL
same,MIC ATB in combination,"[1]; strain CFR UFR253, antibacterial combined with AF1 @ 8 μg/mL",16 µg/mL
same,MIC ATB in combination,"[1]; strain CFR UFR254, antibacterial combined with AF1 @ 4 μg/mL",0.5 µg/mL
same,MIC ATB in combination,"[1]; strain CFR UFR254, antibacterial combined with AF1 @ 8 μg/mL",<=0.25 μg/mL
same,MIC ATB in combination,"[2]; EAE 49469, AF1 @ 4 μg/mL",32 µg/mL
same,MIC ATB in combination,"[2]; EAE 49469, AF1 @ 8 μg/mL",16 µg/mL
same,MIC ATB in combination,"[2]; EAE 200261, AF1 @ 4 μg/mL",32 µg/mL
same,MIC ATB in combination,"[2]; EAE 200261, AF1 @ 8 μg/mL",4 µg/mL
same,MIC ATB in combination,"[2]; EAE UFR199, AF1 @ 4 μg/mL",1 µg/mL
same,MIC ATB in combination,"[2]; EAE UFR199, AF1 @ 8 μg/mL",0.25 µg/mL
same,MIC ATB in combination,"[2]; EAE UFR201, AF1 @ 4 μg/mL",<=0.25 μg/mL
same,MIC ATB in combination,"[2]; EAE UFR201, AF1 @ 8 μg/mL",<=0.25 μg/mL
same,MIC ATB in combination,"[2]; EAE UFR202, AF1 @ 4 μg/mL",16 µg/mL
same,MIC ATB in combination,"[2]; EAE UFR202, AF1 @ 8 μg/mL",4 µg/mL
same,MIC ATB in combination,"[2]; EAE UFR213, AF1 @ 4 μg/mL",1 µg/mL
same,MIC ATB in combination,"[2]; EAE UFR213, AF1 @ 8 μg/mL",0.5 µg/mL
same,MIC,"[2]; EAE UFR199, alone",> 1020 µg/mL
same,MIC,"[2]; strain EAE 49469 (AmpC), ATB alone",> 128 µg/mL
same,MIC,"[2]; strain EAE 49469 (AmpC), CLA @ 4 μg/ml+ ATB",> 128 µg/mL
same,MIC,"[2]; strain EAE 200261 (TEM-x, AmpC), ATB alone",> 128 µg/mL
same,MIC,"[2]; strain EAE 200261 (TEM-x, AmpC), CLA @ 4 μg/ml+ ATB",> 128 µg/mL
same,MIC,"[2]; strain EAE UFR199 (TEM-1b, SHV-12, KPC-2, OXA-9), ATB alone",> 1020 µg/mL
same,MIC,"[2]; strain EAE UFR199 (TEM-1b, SHV-12, KPC-2, OXA-9), CLA @ 4 μg/ml+ ATB",16 µg/mL
same,MIC,"[2]; strain EAE UFR201 (TEM-1, SHV-12, CTX-M-15), ATB alone",> 128 µg/mL
same,MIC,"[2]; strain EAE UFR201 (TEM-1, SHV-12, CTX-M-15), CLA @ 4 μg/ml+ ATB",≤ 0.25 µg/mL
same,MIC,"[2]; strain EAE UFR202 (TEM-24), ATB alone",> 128 µg/mL
same,MIC,"[2]; strain EAE UFR202 (TEM-24), CLA @ 4 μg/ml+ ATB",> 128 µg/mL
same,MIC,"[2]; strain EAE UFR213 (TEM-24), ATB alone",> 128 µg/mL
same,MIC,"[2]; strain EAE UFR213 (TEM-24), CLA @ 4 μg/ml+ ATB",> 128 µg/mL
same,MIC ATB in combination,[3],>128 µg/mL
same,MIC ATB in combination,"[3]; KPN 6299, AF1 @ 4 μg/mL",<=0.25 μg/mL
same,MIC ATB in combination,"[3]; KPN 6299, AF1 @ 8 μg/mL",<=0.25 μg/mL
same,MIC ATB in combination,"[3]; KPN 110376, AF1 @ 4 μg/mL",0.125 µg/mL
same,MIC ATB in combination,"[3]; KPN 110376, AF1 @ 8 μg/mL",0.125 µg/mL
same,MIC ATB in combination,"[3]; KPN 131119, AF1 @ 4 μg/mL",<=0.25 μg/mL
same,MIC ATB in combination,"[3]; KPN 131119, AF1 @ 8 μg/mL",<=0.25 μg/mL
same,MIC ATB in combination,"[3]; KPN 140513, AF1 @ 4 μg/mL",4 µg/mL
same,MIC ATB in combination,"[3]; KPN 140513, AF1 @ 8 μg/mL",0.5 µg/mL
same,MIC ATB in combination,"[3]; KPN 160143, AF1 @ 4 μg/mL",<=0.25 μg/mL
same,MIC ATB in combination,"[3]; KPN 160143, AF1 @ 8 μg/mL",<=0.25 μg/mL
same,MIC ATB in combination,"[3]; KPN 190128, AF1 @ 4 μg/mL",0.5 µg/mL
same,MIC ATB in combination,"[3]; KPN 190128, AF1 @ 8 μg/mL",<=0.25 μg/mL
same,MIC ATB in combination,"[3]; KPN 190270, AF1 @ 4 μg/mL",0.5 µg/mL
same,MIC ATB in combination,"[3]; KPN 190270, AF1 @ 8 μg/mL",<=0.25 μg/mL
same,MIC ATB in combination,"[3]; KPN 190425, AF1 @ 4 μg/mL",<=0.25 μg/mL
same,MIC ATB in combination,"[3]; KPN 190425, AF1 @ 8 μg/mL",<=0.25 μg/mL
same,MIC ATB in combination,"[3]; KPN 190551, AF1 @ 4 μg/mL",<=0.25 μg/mL
same,MIC ATB in combination,"[3]; KPN 190551, AF1 @ 8 μg/mL",<=0.25 μg/mL
same,MIC ATB in combination,"[3]; KPN 200047, AF1 @ 4 μg/mL",<=0.25 μg/mL
same,MIC ATB in combination,"[3]; KPN 200047, AF1 @ 8 μg/mL",<=0.25 μg/mL
same,MIC ATB in combination,"[3]; KPN 200327, AF1 @ 4 μg/mL",<=0.25 μg/mL
same,MIC ATB in combination,"[3]; KPN 200327, AF1 @ 8 μg/mL",<=0.25 μg/mL
same,MIC ATB in combination,"[3]; KPN 260251, AF1 @ 4 μg/mL",<=0.25 μg/mL
same,MIC ATB in combination,"[3]; KPN 260251, AF1 @ 8 μg/mL",0.5 µg/mL
same,MIC ATB in combination,"[3]; KPN 260252, AF1 @ 4 μg/mL",8 µg/mL
same,MIC ATB in combination,"[3]; KPN 260252, AF1 @ 8 μg/mL",4 µg/mL
same,MIC ATB in combination,"[3]; KPN 260376, AF1 @ 4 μg/mL",<=0.25 μg/mL
same,MIC ATB in combination,"[3]; KPN 260376, AF1 @ 8 μg/mL",<=0.25 μg/mL
same,MIC ATB in combination,"[3]; KPN 270077, AF1 @ 4 μg/mL",0.5 µg/mL
same,MIC ATB in combination,"[3]; KPN 270077, AF1 @ 8 μg/mL",<=0.25 μg/mL
same,MIC ATB in combination,"[3]; KPN 700603, AF1 @ 4 μg/mL",<=0.25 μg/mL
